What was measured:
Type in all cases: biochemical
PI3Kγ (p120γ)(h) = PI3Kγ (p120γ)(h) (Homo sapiens, UniProt P48736); assay: Assay for phosphatidylinositol 3-kinase gamma (PI3Kγ) activity, PI3K-HTRF kit; settings: TR-FRET; enzyme 1.45 μg/ml, 10 μM PIP2, 10 μM ATP
Description: (§1) The compounds of the present invention were assayed for the activity of phosphatidylinositol 3-kinase gamma (PI3Kγ) by using a PI3K enzyme-homogenous time resolved fluorescence (PI3K-HTRF) kit, which is available from Upstate (Millipore Co, Billerica, Mass., USA).
(§2) Three kinds of buffer solutions including a phosphorylation reaction solution (a reaction buffer containing 40 mM MgCl2 which is available from Upstate was diluted 4 times and added with 5 mM DTT), a stop solution (STOP A and B solutions which are available from Upstate were mixed at a ratio of 3:1) and a fluorescence detection solution (Detection solutions A, B and C which are available from Upstate were mixed at a ratio of 1:1:18) were prepared. 1 mM of PIP2 substrate (phosphatidylinositol 4,5 biphosphate; Upstate), PI3Kγ (#14-558; Upstate) enzyme and 10 mM ATP (Sigma Aldrich Co., St. Louis, Mo., USA) were prepared. Each of PI3Kγ, 1 mM PIP2 and 10 mM ATP was diluted to 2.9 μg/ml (final reaction concentration: 1.45 μg/ml), 20 μM (final reaction concentration: 10 μM) and 40 μM (final reaction concentration: 10 μM), respectively. The buffer solution used for dilution and preparation process was the phosphorylation reaction solution. The stop solution was used for the termination of phosphorylation reaction, and the fluorescence detection solution was used for the detection of time-resolved fluorescence signals.
(§3) Each test sample was transferred to a 384 well low flange white flat bottom microplate (#3572, Corning Life Sciences, Lowell, Mass., USA) by using a multi 8-channel (Pipetman Neo multi 8×20, Gilson, Middleton, Wis., USA) to make a final phosphorylation reaction volume of 20 μl per each well. For the negative control, 5 μl of 14.4% DMSO and 10 μl of PIP2 substration solution were used, and 5 μl of 14.4% DMSO and 10 μl of PIP2/PI3Kγ mixed solution were used as the positive control. For the test group, 5 μl of a solution prepared by dissolving the compound obtained in Example in DMSO and 10 μl of PIP2/PI3Kγ mixed solution were used. Before the initiation of the phosphorylation reaction, sample compounds were pretreated with the enzyme for approximately 10 minutes, and then the phosphorylation reaction was induced by adding 5 μl of ATP. Since each of the test compound and ATP takes up 25% of the total volume, and PIP2 and PI3Kγ take up 50% of the total volume during the reaction, each solution was concentrated 4 and 2 times, respectively, before mixing the solutions. Subsequently, the test sample was gently shook for 3 minutes and subjected to a phosphorylation reaction for 90 minutes at room temperature, which was then added with 5 μl of the stop solution to terminate the phosphorylation reaction. In order to induce a time-resolved fluorescence reaction, 5 μl of the fluorescence detection solution was added to the sample. The fluorescence detection solution contains biotin-phosphatidylinositol 3,4,5-triphosphate (PIP3), streptavidin-labeled Allopycocyanin (APC) and europium-labeled Pleckstrin homology domain (the PIP3 binds to PH domain), and the time-resolved fluorescence reaction is induced by a series of reaction of PH domain and PIP3, and biotin and streptavidin. The sample was left to stand for 6 hours at room temperature, and the time-resolved fluorescence resonance energy transfer (TR-FRET) rate was measured (emission wavelength: 665 nm, 620 nm, excitation wavelength: 340 nm) by using a Flexstation3 Micro plate reader (Molecular Devices, USA). TR-FRET Rate and TR-Inhibition Rate were calculated based on Equations 1 and 2 below, and the results are expressed in IC50, which is the concentration of a compound that inhibits 50% of PI3Kγ activity in vitro. TR-FRET Rate=(665 nm emission wavelength/620 nm emission wavelength)×10000 <Equation 1> TR-FRET Inhibition Rate=[(TR-FRET Rate of Sample−TR-FRET Rate of Negative Control)/(TR-FRET Rate of Positive Control−TR-FRET Rate of Negative Control)]×100 <Equation 2>

PI3Kδ (p110δ/p85α)(h) = PI3Kδ (p110δ/p85α)(h) (Homo sapiens, UniProt O00329); assay: Assay for phosphatidylinositol 3-kinase delta (PI3Kδ) activity, PI3K-HTRF kit; settings: TR-FRET; enzyme 0.725 μg/ml, 10 μM PIP2, 10 μM ATP
Description: [The source words this procedure for another target and says it was used here with some conditions changed.] as §1, §2
as §3, with “2> […]” for “2>”

PI3K β (p110β/p85α)(h) = PI3K β (p110β/p85α)(h) (Homo sapiens, UniProt P42338); assay: Assay for phosphatidylinositol 3-kinase beta (PI3Kβ) activity, PI3K-HTRF kit; settings: TR-FRET; enzyme 0.725 μg/ml, 10 μM PIP2, 10 μM ATP
Description: [The source words this procedure for another target and says it was used here with some conditions changed.] as §1, §2
as §3, with “2> […]” for “2>”

PI3Kα (p110α/p85α)(h) = PI3Kα (p110α/p85α)(h) (Homo sapiens, UniProt P42336); assay: Assay for phosphatidylinositol 3-kinase alpha (PI3Kα) activity, PI3K-HTRF kit; settings: TR-FRET; enzyme 0.3625 μg/ml, 10 μM PIP2, 10 μM ATP
Description: [The source words this procedure for another target and says it was used here with some conditions changed.] as §1, §2, §3

PI3K β (p110β/p85α)(h), sequence (P42338 whole entry): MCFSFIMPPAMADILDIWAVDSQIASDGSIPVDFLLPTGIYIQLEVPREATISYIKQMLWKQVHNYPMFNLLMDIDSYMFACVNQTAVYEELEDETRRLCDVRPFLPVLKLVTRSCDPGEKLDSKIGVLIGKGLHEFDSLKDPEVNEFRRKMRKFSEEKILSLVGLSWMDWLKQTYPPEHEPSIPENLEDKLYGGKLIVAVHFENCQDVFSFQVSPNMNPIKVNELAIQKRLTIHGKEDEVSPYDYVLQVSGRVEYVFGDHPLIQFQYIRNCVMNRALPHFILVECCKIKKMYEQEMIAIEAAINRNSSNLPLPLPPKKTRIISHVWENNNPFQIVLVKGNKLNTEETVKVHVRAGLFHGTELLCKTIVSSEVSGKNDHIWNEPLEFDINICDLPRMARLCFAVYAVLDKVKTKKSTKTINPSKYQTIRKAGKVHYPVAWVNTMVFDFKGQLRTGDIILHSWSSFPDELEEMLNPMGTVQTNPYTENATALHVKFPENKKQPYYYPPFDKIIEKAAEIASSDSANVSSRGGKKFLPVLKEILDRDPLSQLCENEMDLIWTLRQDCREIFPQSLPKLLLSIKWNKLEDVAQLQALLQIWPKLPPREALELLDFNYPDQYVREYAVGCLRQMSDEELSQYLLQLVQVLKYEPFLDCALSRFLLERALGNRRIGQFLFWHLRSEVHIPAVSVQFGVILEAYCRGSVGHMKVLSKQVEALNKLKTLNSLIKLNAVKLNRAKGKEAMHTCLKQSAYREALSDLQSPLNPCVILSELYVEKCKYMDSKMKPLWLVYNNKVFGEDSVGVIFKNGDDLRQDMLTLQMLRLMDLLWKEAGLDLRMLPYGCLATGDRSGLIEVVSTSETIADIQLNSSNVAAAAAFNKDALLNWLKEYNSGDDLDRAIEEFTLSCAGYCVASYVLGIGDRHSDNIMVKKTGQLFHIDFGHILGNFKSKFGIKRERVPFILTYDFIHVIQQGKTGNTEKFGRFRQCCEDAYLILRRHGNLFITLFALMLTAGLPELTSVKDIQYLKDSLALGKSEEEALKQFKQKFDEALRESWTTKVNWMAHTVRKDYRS
PI3K β (p110β/p85α)(h), sequence (P27986 whole entry partner): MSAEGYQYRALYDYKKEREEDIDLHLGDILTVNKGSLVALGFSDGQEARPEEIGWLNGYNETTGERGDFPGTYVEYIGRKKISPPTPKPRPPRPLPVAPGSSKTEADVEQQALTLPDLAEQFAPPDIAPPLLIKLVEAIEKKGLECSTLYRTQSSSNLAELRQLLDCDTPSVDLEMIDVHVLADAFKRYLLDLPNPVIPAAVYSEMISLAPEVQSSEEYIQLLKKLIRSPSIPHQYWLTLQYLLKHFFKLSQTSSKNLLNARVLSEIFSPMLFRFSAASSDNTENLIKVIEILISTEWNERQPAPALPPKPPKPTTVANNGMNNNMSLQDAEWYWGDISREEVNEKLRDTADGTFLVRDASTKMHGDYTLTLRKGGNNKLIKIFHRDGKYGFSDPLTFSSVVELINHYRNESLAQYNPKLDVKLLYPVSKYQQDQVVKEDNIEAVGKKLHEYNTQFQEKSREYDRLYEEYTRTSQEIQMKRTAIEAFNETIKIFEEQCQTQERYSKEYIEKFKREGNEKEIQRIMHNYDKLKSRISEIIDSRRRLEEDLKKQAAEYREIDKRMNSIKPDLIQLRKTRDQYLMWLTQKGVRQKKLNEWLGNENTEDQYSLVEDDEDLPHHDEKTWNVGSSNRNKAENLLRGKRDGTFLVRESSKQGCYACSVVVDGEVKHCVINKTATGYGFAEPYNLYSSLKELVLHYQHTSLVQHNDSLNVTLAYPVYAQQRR
PI3Kδ (p110δ/p85α)(h), sequence (O00329 whole entry): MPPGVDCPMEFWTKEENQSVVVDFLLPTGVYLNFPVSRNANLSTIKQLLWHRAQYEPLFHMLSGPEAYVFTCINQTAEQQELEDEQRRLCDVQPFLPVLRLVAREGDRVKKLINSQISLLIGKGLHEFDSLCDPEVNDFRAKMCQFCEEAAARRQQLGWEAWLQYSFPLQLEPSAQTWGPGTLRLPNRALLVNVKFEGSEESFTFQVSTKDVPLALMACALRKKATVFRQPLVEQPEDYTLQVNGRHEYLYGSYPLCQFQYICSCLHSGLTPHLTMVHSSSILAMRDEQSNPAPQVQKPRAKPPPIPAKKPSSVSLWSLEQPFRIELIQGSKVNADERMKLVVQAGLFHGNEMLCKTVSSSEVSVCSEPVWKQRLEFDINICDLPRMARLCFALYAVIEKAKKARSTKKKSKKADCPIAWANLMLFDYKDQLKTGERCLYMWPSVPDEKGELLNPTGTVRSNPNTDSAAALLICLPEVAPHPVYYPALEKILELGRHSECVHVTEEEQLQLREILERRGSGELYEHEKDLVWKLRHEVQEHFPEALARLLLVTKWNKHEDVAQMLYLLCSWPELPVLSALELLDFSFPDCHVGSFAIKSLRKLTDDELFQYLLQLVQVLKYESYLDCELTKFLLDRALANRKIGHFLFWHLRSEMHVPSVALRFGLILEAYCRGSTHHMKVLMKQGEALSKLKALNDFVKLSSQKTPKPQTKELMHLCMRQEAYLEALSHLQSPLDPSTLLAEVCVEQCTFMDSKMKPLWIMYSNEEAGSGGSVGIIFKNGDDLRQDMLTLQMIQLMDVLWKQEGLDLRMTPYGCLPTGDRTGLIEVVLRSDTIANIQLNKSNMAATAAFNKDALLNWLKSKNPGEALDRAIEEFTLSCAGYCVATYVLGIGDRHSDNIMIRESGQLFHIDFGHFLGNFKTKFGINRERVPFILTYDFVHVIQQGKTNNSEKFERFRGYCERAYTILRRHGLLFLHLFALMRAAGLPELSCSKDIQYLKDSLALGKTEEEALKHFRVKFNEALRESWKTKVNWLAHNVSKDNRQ
PI3Kδ (p110δ/p85α)(h), sequence (P27986 whole entry partner): as the sequence (P27986 whole entry partner) above
PI3Kγ (p120γ)(h), sequence (P48736 whole entry): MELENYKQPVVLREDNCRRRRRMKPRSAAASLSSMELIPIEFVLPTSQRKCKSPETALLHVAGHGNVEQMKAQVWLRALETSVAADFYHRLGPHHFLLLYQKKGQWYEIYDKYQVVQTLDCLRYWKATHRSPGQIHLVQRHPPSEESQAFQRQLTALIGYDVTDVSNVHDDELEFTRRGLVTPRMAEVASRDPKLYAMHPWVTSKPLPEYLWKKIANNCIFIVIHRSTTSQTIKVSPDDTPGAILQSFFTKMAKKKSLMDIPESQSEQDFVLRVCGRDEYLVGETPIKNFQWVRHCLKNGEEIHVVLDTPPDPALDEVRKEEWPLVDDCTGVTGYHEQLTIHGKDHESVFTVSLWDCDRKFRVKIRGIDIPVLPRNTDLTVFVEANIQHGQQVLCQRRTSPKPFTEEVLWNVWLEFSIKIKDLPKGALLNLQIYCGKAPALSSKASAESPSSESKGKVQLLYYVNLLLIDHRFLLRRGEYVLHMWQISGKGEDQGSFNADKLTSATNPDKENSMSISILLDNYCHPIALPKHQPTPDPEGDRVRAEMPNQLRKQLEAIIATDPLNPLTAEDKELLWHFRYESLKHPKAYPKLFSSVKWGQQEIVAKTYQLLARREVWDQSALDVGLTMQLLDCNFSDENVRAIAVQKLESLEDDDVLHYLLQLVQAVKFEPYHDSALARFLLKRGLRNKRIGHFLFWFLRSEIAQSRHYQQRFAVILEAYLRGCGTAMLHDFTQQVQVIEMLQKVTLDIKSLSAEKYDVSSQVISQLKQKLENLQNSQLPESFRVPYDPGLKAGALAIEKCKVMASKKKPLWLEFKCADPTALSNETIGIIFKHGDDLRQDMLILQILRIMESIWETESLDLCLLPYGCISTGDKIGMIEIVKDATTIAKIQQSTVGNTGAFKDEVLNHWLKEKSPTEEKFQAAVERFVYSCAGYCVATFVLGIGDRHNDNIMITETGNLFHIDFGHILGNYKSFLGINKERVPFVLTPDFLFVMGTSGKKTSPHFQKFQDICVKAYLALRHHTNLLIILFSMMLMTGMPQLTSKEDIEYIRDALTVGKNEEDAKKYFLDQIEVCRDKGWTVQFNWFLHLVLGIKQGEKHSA
PI3Kα (p110α/p85α)(h), sequence (P42336 whole entry): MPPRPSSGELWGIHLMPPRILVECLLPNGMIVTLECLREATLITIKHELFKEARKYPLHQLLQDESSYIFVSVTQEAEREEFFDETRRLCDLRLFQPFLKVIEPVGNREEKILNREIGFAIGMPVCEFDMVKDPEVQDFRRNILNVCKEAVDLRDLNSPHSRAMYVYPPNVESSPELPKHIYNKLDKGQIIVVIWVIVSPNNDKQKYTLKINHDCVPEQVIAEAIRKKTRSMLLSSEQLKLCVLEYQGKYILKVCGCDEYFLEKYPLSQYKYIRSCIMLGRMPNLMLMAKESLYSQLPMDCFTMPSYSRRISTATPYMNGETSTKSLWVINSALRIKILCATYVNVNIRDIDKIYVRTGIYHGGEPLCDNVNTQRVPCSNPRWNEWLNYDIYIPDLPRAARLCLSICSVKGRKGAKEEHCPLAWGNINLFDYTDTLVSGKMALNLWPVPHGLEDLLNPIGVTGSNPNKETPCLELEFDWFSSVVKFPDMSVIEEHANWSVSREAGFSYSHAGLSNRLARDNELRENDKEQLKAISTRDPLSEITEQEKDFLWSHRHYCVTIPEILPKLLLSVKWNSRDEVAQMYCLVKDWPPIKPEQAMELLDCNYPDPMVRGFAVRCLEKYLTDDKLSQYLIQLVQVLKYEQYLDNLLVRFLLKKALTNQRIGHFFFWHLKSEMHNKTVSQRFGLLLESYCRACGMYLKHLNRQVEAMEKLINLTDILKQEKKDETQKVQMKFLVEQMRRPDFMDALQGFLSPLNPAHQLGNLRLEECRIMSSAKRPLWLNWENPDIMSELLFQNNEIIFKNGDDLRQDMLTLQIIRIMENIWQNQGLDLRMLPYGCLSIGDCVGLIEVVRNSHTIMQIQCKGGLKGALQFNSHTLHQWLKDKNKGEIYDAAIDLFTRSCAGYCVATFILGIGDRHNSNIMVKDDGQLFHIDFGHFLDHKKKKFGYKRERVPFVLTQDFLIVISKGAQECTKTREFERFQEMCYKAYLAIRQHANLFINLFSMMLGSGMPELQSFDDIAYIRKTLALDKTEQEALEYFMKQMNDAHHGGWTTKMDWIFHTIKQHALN
PI3Kα (p110α/p85α)(h), sequence (P27986 whole entry partner): as the sequence (P27986 whole entry partner) above

Structure (SMILES)	IC50 (PI3Kγ (p120γ)(h))	IC50 (PI3Kδ (p110δ/p85α)(h))	IC50 (PI3K β (p110β/p85α)(h))	IC50 (PI3Kα (p110α/p85α)(h))
O=C1NC(=O)/C(=C/c2cc3cncc(C#Cc4ccc(OC(F)(F)F)cc4)c3o2)S1 [Example 533]	37 nM	2230 nM	3720 nM	14 nM
COc1ccc(-c2cncc3cc(/C=C4\SC(=O)NC4=O)oc23)cc1 [Example 25, (Z)-5-[{7-(4-Methoxyphenyl)furo[3,2-c]pyridin-2-yl}methylene]thiazolidine-2,4-dione]	5 nM	> 10000 nM	> 10000 nM	6 nM
O=C1NC(=S)S/C1=C\c1cc2cncc(C(=O)NCc3ccc(Cl)cc3)c2o1 [Example 427, (Z)—N-(4-Chlorobenzyl)-2-{(4-oxo-2-thioxothiazolidin-5-ylidene)methyl}furo[3,2-c]pyridine-7-carboxamide]	134 nM	1170 nM	250 nM	62 nM
COc1ccc(-c2cncc3cc(/C=C4\SC(=S)NC4=O)oc23)cc1F [Example 161, (Z)-5-[{7-(3-Fluoro-4-methoxyphenyl)furo[3,2-c]pyridin-2-yl}methylene]-2-thioxothiazolidin-4-one]	17 nM	191 nM	> 10000 nM	13 nM
CN(C)S(=O)(=O)c1ccc(-c2cncc3cc(/C=C4\SC(=S)NC4=O)oc23)cc1F [Example 330, (Z)-2-Fluoro-N,N-dimethyl-4-[2-{(4-oxo-2-thioxothiazolidin-5-ylidene)methyl}furo[3,2-c]pyridin-7-yl]benzenesulfonamide]	12 nM	> 10000 nM	> 10000 nM	24 nM
Cc1cc(-c2cncc3cc(/C=C4\SC(=O)NC4=O)oc23)ccc1S(=O)(=O)NC(C)(C)C [Example 310, (Z)—N-tert-Butyl-4-[2-{(2,4-dioxothiazolidin-5-ylidene)methyl}furo[3,2-c]pyridin-7-yl]-2-methylbenzenesulfonamide]	12 nM	220 nM	1940 nM	11 nM
Cc1cc(-c2cncc3cc(/C=C4\SC(=S)NC4=O)oc23)cc(C)c1OC(C)C [Example 197, (Z)-5-[{7-(4-Isopropoxy-3,5-dimethylphenyl)furo[3,2-c]pyridin-2-yl}methylene]-2-thioxothiazolidin-4-one]	5 nM	> 10000 nM	> 10000 nM	121 nM
COc1cc(C#Cc2cncc3cc(/C=C4\SC(=O)NC4=O)oc23)cc(OC)c1 [Example 450, (Z)-5-([7-{(3,5-Dimethoxyphenyl)ethynyl}furo[3,2-c]pyridin-2-yl]methylene)thiazolidine-2,4-dione]	13 nM	> 10000 nM	4650 nM	8 nM
Cc1cc(-c2cncc3cc(/C=C4\SC(=O)NC4=O)oc23)ccc1S(=O)(=O)N1CCOCC1 [Example 307, (Z)-5-([7-{3-Methyl-4-(morpholinosulfonyl)phenyl}furo[3,2-c]pyridin-2-yl]methylene)thiazolidine-2,4-dione]	15 nM	52 nM	1940 nM	14 nM
O=C1NC(=O)/C(=C/c2cc3cncc(-c4cccc(CN5CCCCC5)c4)c3o2)S1 [Example 132, (Z)-5-([7-{3-(Piperidin-1-ylmethyl)phenyl}furo[3,2-c]pyridin-2-yl]methylene)thiazolidine-2,4-dione]	95 nM	98 nM	337 nM	22 nM
Cc1cc(C#Cc2cncc3cc(/C=C4\SC(=O)NC4=O)oc23)ccc1F [Example 453, (Z)-5-([7-{(4-Fluoro-3-methylphenyl)ethynyl}furo[3,2-c]pyridin-2-yl]methylene)thiazolidine-2,4-dione]	12 nM	801 nM	5070 nM	25 nM
COc1ccc(-c2cncc3cc(/C=C4\SC(=O)NC4=O)oc23)cc1C(F)(F)F [Example 90, (Z)-5-([7-{4-Methoxy-3-(trifluoromethyl)phenyl}furo[3,2-c]pyridin-2-yl]methylene)thiazolidine-2,4-dione]	5 nM	6250 nM	3570 nM	3 nM
O=C1NC(=O)/C(=C/c2cc3cncc(C#Cc4cccc(C(F)(F)F)c4)c3o2)S1 [Example 441, (Z)-5-{(7-[{3-(Trifluoromethyl)phenyl}ethynyl]furo[3,2-c]pyridin-2-yl)methylene}thiazolidine-2,4-dione]	10 nM	> 10000 nM	> 10000 nM	2 nM
CN(C)S(=O)(=O)c1ccc(-c2cncc3cc(/C=C4\SC(=S)NC4=O)oc23)cc1OC(F)(F)F [Example 339, (Z)—N,N-Dimethyl-4-[2-{(4-oxo-2-thioxothiazolidin-5-ylidene)methyl}furo[3,2-c]pyridin-7-yl]-2-(trifluoromethoxy)benzenesulfonamide]	16 nM	188 nM	443 nM	8 nM
COC(=O)c1ccc(C#Cc2cncc3cc(/C=C4\SC(=O)NC4=O)oc23)cc1 [Example 532, (Z)-Methyl 4-([2-{(2,4-dioxothiazolidin-5-ylidene)methyl}furo[3,2-c]pyridin-7-yl]ethynyl)benzoate]	33 nM	137 nM	1390 nM	5 nM

From patent US9493478B2, “Fused ring compound containing furan or salt thereof and pharmaceutical composition comprising same” (YUHAN CORPORATION, priority 2012, dated 2016)
